In patent publication US20030166601A1, “Novel colloid synthetic vectors for gene therapy” (priority 1999, published 2003):

What was measured:
CD-1 mice = assay: Luciferase expression in organs after intravenous injection of pCILuc complexes; assay type: in vivo; details: for Luciferase RLU/20 ul lysate heart / Luciferase RLU/20 ul lysate kidney / Luciferase RLU/20 ul lysate liver / Luciferase RLU/20 ul lysate lung / Luciferase RLU/20 ul lysate spleen: 40 μg pCILuc i.v., 5 h; for expression in vivo by core complexes: mouse
Experimental: Substituted aminoethanols (cationic compounds) were prepared as described in Examples 1-34. Their gene delivery ability was studied in vivo by intravenous injection (Table 1 and 2) using a standard method. The preparations were administered via tail vein injection to mice and gene expression determined after 5 hours. Female CD-1 mice, 13-15 g, were purchased from Charles River Inc. Forty microgram of pCILuc complexed with GC lipids or GC lipid:Chol dispersion as indicated weight ratios. After 5 h, mice were sacrificed and organs were collected. Organs were homogenized in 0.5 ml of lysis buffer and 20 μl of supernatant was used for luciferase assay. Luciferase activity was represented as a mean of relative light unit (RLU) of four mice. The lipids were either used alone or combined with cholesterol and complexed with a luciferase reporter gene plasmid by a standard procedure at a range of weight and charge ratios. For the in vivo screen, 40 μg of pCILuc was complexed with the formulation and injected into the mice.
All compounds were evaluated for in vivo activity. Two critical factors were examined, formulation with or without cholesterol and the ratio of cationic lipid to DNA. Cholesterol was tested at 1:1 mole ratio of lipid:chol. The studies were performed with a dose of 40 μg of pCILuc complexed with cationic lipid or lipid: Chol (1:1 mole ratio) injected i.v. into CD-1 mice and then luciferase activity in different organs determined 5 h later. The first evaluation included all of 14 GC-lipids at weight ratios of 2 and 10 (GC lipid to DNA). It was performed by four separated experiments. Each time cationic liposome DOTAP:Chol was used as a standard control.
Measurements were repeated with lipids GC-030, GC-034 and GC-029 at wider weight ratios than the first experiment. Luciferase activity is represented as a mean of relative light unit (RLU) of four mice. WR means weight ratio of GC lipids to DNA. The transfection activity was represented by luciferase activity RLU/organ. […] The transfection activity increased with the increased weight ratio (GC lipids to DNA). Inclusion of cholesterol can change the biodistribution of gene expression in the different organs examined. […] However this function of cholesterol was not seen with GC-034.

cultured cells = assay: Transfection of cultured cells, luciferase activity; assay type: cell-based
Source text: The gene delivery ability of substituted aminoethanols with long chain hydrocarbon (aliphatic) substitutients was studied by transfection of cultured cells and then in vivo by intravenous injection (Table 2 and 3). The substituted aminoethanols have two hydrophilic polar heads connected with one hydrophobic body, which was named bihead lipids. Bihead lipids are proposed to form a monolayer membrane.

SMILES: CCCCCCCCCCCCCCC(O)CN(CCCN)CCCCCCCCCCCCCN(CCCN)CC(O)CCCCCCCCCCCCCC (stereo not shown) [CGP44015A]
- Luciferase RLU/20 ul lysate heart (CD-1 mice; CR 0.5): 74 RLU/20 ul lysate
- Luciferase RLU/20 ul lysate kidney (CD-1 mice; CR 0.5): 72 RLU/20 ul lysate
- Luciferase RLU/20 ul lysate liver (CD-1 mice; CR 0.5): 86 RLU/20 ul lysate
- Luciferase RLU/20 ul lysate lung (CD-1 mice; CR 0.5): 82 RLU/20 ul lysate
- Luciferase RLU/20 ul lysate spleen (CD-1 mice; CR 0.5): 80 RLU/20 ul lysate
- Luciferase RLU/20 ul lysate heart (CD-1 mice; CR 1): 73 RLU/20 ul lysate
- Luciferase RLU/20 ul lysate kidney (CD-1 mice; CR 1): 71 RLU/20 ul lysate
- Luciferase RLU/20 ul lysate liver (CD-1 mice; CR 1): 219 RLU/20 ul lysate
- Luciferase RLU/20 ul lysate lung (CD-1 mice; CR 1): 95 RLU/20 ul lysate
- Luciferase RLU/20 ul lysate spleen (CD-1 mice; CR 1): 168 RLU/20 ul lysate
- Luciferase RLU/20 ul lysate heart (CD-1 mice; CR 4): 379 RLU/20 ul lysate
- Luciferase RLU/20 ul lysate kidney (CD-1 mice; CR 4): 528 RLU/20 ul lysate
- Luciferase RLU/20 ul lysate liver (CD-1 mice; CR 4): 3,817 RLU/20 ul lysate
- Luciferase RLU/20 ul lysate lung (CD-1 mice; CR 4): 19,717 RLU/20 ul lysate
- Luciferase RLU/20 ul lysate spleen (CD-1 mice; CR 4): 4,778 RLU/20 ul lysate
- Luciferase RLU/20 ul lysate heart (CD-1 mice; CR 10): 103 RLU/20 ul lysate
- Luciferase RLU/20 ul lysate kidney (CD-1 mice; CR 10): 281 RLU/20 ul lysate
- Luciferase RLU/20 ul lysate liver (CD-1 mice; CR 10): 1,283 RLU/20 ul lysate
- Luciferase RLU/20 ul lysate lung (CD-1 mice; CR 10): 4,470 RLU/20 ul lysate
- Luciferase RLU/20 ul lysate spleen (CD-1 mice; CR 10): 4,108 RLU/20 ul lysate
- Luciferase RLU/20 ul lysate heart (CD-1 mice; CR 20): 75 RLU/20 ul lysate
- Luciferase RLU/20 ul lysate kidney (CD-1 mice; CR 20): 70 RLU/20 ul lysate
- Luciferase RLU/20 ul lysate liver (CD-1 mice; CR 20): 243 RLU/20 ul lysate
- Luciferase RLU/20 ul lysate lung (CD-1 mice; CR 20): 84 RLU/20 ul lysate
- Luciferase RLU/20 ul lysate spleen (CD-1 mice; CR 20): 69 RLU/20 ul lysate
- expression in vivo by core complexes (CD-1 mice): exhibit expression in vivo
- Luciferase activity Ave. RLU × 10000/well FBS(+) (cultured cells; charge ratio (+/−) 0.5): 130 RLU × 10000/well
- Luciferase activity Ave. RLU × 10000/well FBS(−) (cultured cells; charge ratio (+/−) 0.5): 159 RLU × 10000/well
- Luciferase activity Ave. RLU × 10000/well FBS(+) (cultured cells; charge ratio (+/−) 1): 3,373 RLU × 10000/well
- Luciferase activity Ave. RLU × 10000/well FBS(−) (cultured cells; charge ratio (+/−) 1): 3,252 RLU × 10000/well
- Luciferase activity Ave. RLU × 10000/well FBS(+) (cultured cells; charge ratio (+/−) 2): 17,315 RLU × 10000/well
- Luciferase activity Ave. RLU × 10000/well FBS(−) (cultured cells; charge ratio (+/−) 2): 17,063 RLU × 10000/well
- Luciferase activity Ave. RLU × 10000/well FBS(+) (cultured cells; charge ratio (+/−) 4): 25,732 RLU × 10000/well
- Luciferase activity Ave. RLU × 10000/well FBS(−) (cultured cells; charge ratio (+/−) 4): 24,484 RLU × 10000/well
- Luciferase activity Ave. RLU × 10000/well FBS(+) (cultured cells; charge ratio (+/−) 6): 27,844 RLU × 10000/well
- Luciferase activity Ave. RLU × 10000/well FBS(−) (cultured cells; charge ratio (+/−) 6): 24,089 RLU × 10000/well
- Luciferase activity Ave. RLU × 10000/well FBS(+) (cultured cells; charge ratio (+/−) 8): 27,298 RLU × 10000/well
- Luciferase activity Ave. RLU × 10000/well FBS(−) (cultured cells; charge ratio (+/−) 8): 24,150 RLU × 10000/well

SMILES: CCCCCCCCCCCCC(O)CN(CCCN)CCCCCCCCCCCCCN(CCCN)CC(O)CCCCCCCCCCCC (stereo not shown) [CGP47204A]
- Luciferase RLU/20 ul lysate heart (CD-1 mice; CR 0.5): 38 RLU/20 ul lysate
- Luciferase RLU/20 ul lysate kidney (CD-1 mice; CR 0.5): 39 RLU/20 ul lysate
- Luciferase RLU/20 ul lysate liver (CD-1 mice; CR 0.5): 45 RLU/20 ul lysate
- Luciferase RLU/20 ul lysate lung (CD-1 mice; CR 0.5): 44 RLU/20 ul lysate
- Luciferase RLU/20 ul lysate spleen (CD-1 mice; CR 0.5): 80 RLU/20 ul lysate
- Luciferase RLU/20 ul lysate heart (CD-1 mice; CR 1): 41 RLU/20 ul lysate
- Luciferase RLU/20 ul lysate kidney (CD-1 mice; CR 1): 38 RLU/20 ul lysate
- Luciferase RLU/20 ul lysate liver (CD-1 mice; CR 1): 53 RLU/20 ul lysate
- Luciferase RLU/20 ul lysate lung (CD-1 mice; CR 1): 51 RLU/20 ul lysate
- Luciferase RLU/20 ul lysate spleen (CD-1 mice; CR 1): 467 RLU/20 ul lysate
- Luciferase RLU/20 ul lysate heart (CD-1 mice; CR 4): 129 RLU/20 ul lysate
- Luciferase RLU/20 ul lysate kidney (CD-1 mice; CR 4): 386 RLU/20 ul lysate
- Luciferase RLU/20 ul lysate liver (CD-1 mice; CR 4): 4,583 RLU/20 ul lysate
- Luciferase RLU/20 ul lysate lung (CD-1 mice; CR 4): 5,009 RLU/20 ul lysate
- Luciferase RLU/20 ul lysate spleen (CD-1 mice; CR 4): 5,594 RLU/20 ul lysate
- Luciferase RLU/20 ul lysate heart (CD-1 mice; CR 10): 983 RLU/20 ul lysate
- Luciferase RLU/20 ul lysate kidney (CD-1 mice; CR 10): 156 RLU/20 ul lysate
- Luciferase RLU/20 ul lysate liver (CD-1 mice; CR 10): 3,270 RLU/20 ul lysate
- Luciferase RLU/20 ul lysate lung (CD-1 mice; CR 10): 38,115 RLU/20 ul lysate
- Luciferase RLU/20 ul lysate spleen (CD-1 mice; CR 10): 6,378 RLU/20 ul lysate
- Luciferase RLU/20 ul lysate heart (CD-1 mice; CR 20): 96 RLU/20 ul lysate
- Luciferase RLU/20 ul lysate kidney (CD-1 mice; CR 20): 113 RLU/20 ul lysate
- Luciferase RLU/20 ul lysate liver (CD-1 mice; CR 20): 429 RLU/20 ul lysate
- Luciferase RLU/20 ul lysate lung (CD-1 mice; CR 20): 3,258 RLU/20 ul lysate
- Luciferase RLU/20 ul lysate spleen (CD-1 mice; CR 20): 779 RLU/20 ul lysate
- expression in vivo by core complexes (CD-1 mice): exhibit expression in vivo
- Luciferase activity Ave. RLU × 10000/well FBS(+) (cultured cells; charge ratio (+/−) 0.5): 11 RLU × 10000/well
- Luciferase activity Ave. RLU × 10000/well FBS(−) (cultured cells; charge ratio (+/−) 0.5): 33 RLU × 10000/well
- Luciferase activity Ave. RLU × 10000/well FBS(+) (cultured cells; charge ratio (+/−) 1): 821 RLU × 10000/well
- Luciferase activity Ave. RLU × 10000/well FBS(−) (cultured cells; charge ratio (+/−) 1): 737 RLU × 10000/well
- Luciferase activity Ave. RLU × 10000/well FBS(+) (cultured cells; charge ratio (+/−) 2): 8,079 RLU × 10000/well
- Luciferase activity Ave. RLU × 10000/well FBS(−) (cultured cells; charge ratio (+/−) 2): 8,386 RLU × 10000/well
- Luciferase activity Ave. RLU × 10000/well FBS(+) (cultured cells; charge ratio (+/−) 4): 13,088 RLU × 10000/well
- Luciferase activity Ave. RLU × 10000/well FBS(−) (cultured cells; charge ratio (+/−) 4): 15,009 RLU × 10000/well
- Luciferase activity Ave. RLU × 10000/well FBS(+) (cultured cells; charge ratio (+/−) 6): 22,694 RLU × 10000/well
- Luciferase activity Ave. RLU × 10000/well FBS(−) (cultured cells; charge ratio (+/−) 6): 20,091 RLU × 10000/well
- Luciferase activity Ave. RLU × 10000/well FBS(+) (cultured cells; charge ratio (+/−) 8): 21,644 RLU × 10000/well
- Luciferase activity Ave. RLU × 10000/well FBS(−) (cultured cells; charge ratio (+/−) 8): 17,740 RLU × 10000/well
